SMILES strings stand for the structures.

As a reminder, the melting point is the temperature, or range, at which the solid turns liquid.

The compound `CC(C)S(=O)(=O)NCC(C)(F)c1ccc(C#CCCCCO)cc1` (stereo not shown) [Example 11, {2-fluoro-2-[4-(6-hydroxyhex-1-ynyl)phenyl]propyl}[(methylethyl)sulfonyl]amine] yielded a melting point of 92 to 93 °C.

The values are drawn from US20040198833A1, “Acetylenic sulfonamide derivatives” (priority 2000, published 2004).
